This note sets out measurements from patent publication US9126953B2, “Triazole compounds that modulate HSP90 activity” (Synta Pharmaceuticals Corp., priority 2008, dated 2015).

Each structure is given as a SMILES string. Where only a bound is given, the exact number is not on record here.

The test system of the first assay is MV-4-11 cells. Nature of the assay: Her2 degradation Method 2: MV-4-11 cell survival, Cell Counting Kit-8 (Table 2: inhibition of Hsp90). The following applies: Homo sapiens, MV4-11, 72 hours, cell survival by Cell Counting Kit-8, text calls it IC50 for Her2 degradation, read-out: IC50 range of compounds of the invention for inhibition of Hsp90, IC50. It counts as cell-based. How it is done: MV-4-11 cells (20,000 cells/well) were cultured in 96-well plates and maintained at 37° C. for several hours. The cells were treated with a compound of the invention or 17AAG (a positive control) at various concentrations and incubated at 37° C. for 72 hours. Cell survival was measured with Cell Counting Kit-8 (Dojindo Laboratories, Cat. # CK04).
As a reminder, the IC50 is the concentration needed to halve the response being measured. Regarding `NC(=O)c1nnc(-c2cc3c(cc2O)OCO3)n1-c1ccc(N2CCOCC2)cc1` [Compound 1, 5-(6-hydroxybenzo[d][1,3]-dioxol-5-yl)-4-(4-morpholinophenyl)-4H-1,2,4-triazole-3-carboxamide], the IC50 lay within 20 to 50 µM.

Take `NC(=O)c1nnc(-c2cc3c(cc2O)OCCC3)n1-c1ccc2c(c1)OCO2` [Compound 2, 4-(benzo[d][1,3]dioxol-5-yl)-5-(7-hydroxychroman-6-yl)-4H-1,2,4-triazole-3-carboxamide]: the IC50 is ≤ 10 µM. The same measure, in the same setting: next, `COc1ccc(-n2c(C(N)=O)nnc2-c2cc3c(cc2O)OCC3)cc1` [Compound 3, 5-(6-hydroxy-2,3-dihydrobenzofuran-5-yl)-4-(4-methoxyphenyl)-4H-1,2,4-triazole-3-carboxamide]: 20 to 50 µM. The same measure, in the same setting: in the case of `COc1ccc(-n2c(C(N)=O)nnc2-c2cc3c(cc2O)OCCC3)cc1` [Compound 4, 5-(7-hydroxychroman-6-yl)-4-(4-methoxyphenyl)-4H-1,2,4-triazole-3-carboxamide] it was > 50 µM; in that of `COc1ccc(-n2c(C(N)=O)nnc2-c2cc3c(cc2O)CCC3)cc1` [Compound 5, 5-(6-hydroxy-2,3-dihydro-1H-inden-5-yl)-4-(4-methoxyphenyl)-4H-1,2,4-triazole-3-carboxamide], 10 to 20 µM. On the same count and under the same terms, next, `COc1ccc(-n2c(C(N)=O)nnc2-c2c(O)ccc3c2CCCC3)cc1` [Compound 6, 5-(2-hydroxy-5,6,7,8-tetrahydronaphthalen-1-yl)-4-(4-methoxyphenyl)-4H-1,2,4-triazole-3-carboxamide]: 20 to 50 µM; `COc1ccc(-n2c(C(N)=O)nnc2-c2c(O)ccc3ccccc23)cc1` [Compound 7, 5-(2-hydroxynaphthalen-1-yl)-4-(4-methoxyphenyl)-4H-1,2,4-triazole-3-carboxamide]: 20 to 50 µM. As to `COc1ccc(-n2c(C(N)=O)nnc2-c2ccc3c(c2O)CCCC3)cc1` [Compound 8, 5-(1-hydroxy-5,6,7,8-tetrahydronaphthalen-2-yl)-4-(4-methoxyphenyl)-4H-1,2,4-triazole-3-carboxamide], the IC50 was > 50 µM.

The test system of the next assay is Her2. Kind of assay: Degradation of Her2 in BT-474 cells, Method 1 (Western blot). Type of assay: cell-based, human. The following applies: 0.5 μM, overnight, positive control. The procedure: Human high-Her2 breast carcinoma BT474 (HTB-20), SK-BR-3 (HTB-30) and MCF-7 breast carcinoma (HTB-22) from American Type Culture Collection, VA, USA were grown in Dulbecco's modified Eagle's medium with 4 mM L-glutamine and antibiotics (100 IU/ml penicillin and 100 μg/ml streptomycine; GibcoBRL). To obtain exponential cell growth, cells were trypsinized, counted and seeded at a cell density of 0.5×10^6 cells/ml regularly, every 3 days. All experiments were performed on day 1 after cell passage.
BT-474 cells are treated with 0.5 μM, 2 μM, or 5 μM of 17AAG (a positive control) or 0.5 μM, 2 μM, or 5 μM of a compound of the invention overnight in DMEM medium. After treatment, each cytoplasmic sample is prepared from 1×10^6 cells by incubation of cell lysis buffer (#9803, Cell Signaling Technology) on ice for 10 minutes. The resulting supernatant used as the cytosol fractions is dissolved with sample buffer for SDS-PAGE and run on a SDS-PAGE gel, blotted onto a nitrocellulose membrane by using semi-dry transfer. Non-specific binding to nitrocellulose is blocked with 5% skim milk in TBS with 0.5% Tween at room temperature for 1 hour, then probed with anti-Her2/ErB2 mAb (rabbit IgG, #2242, Cell Signaling) and anti-Tubulin (T9026, Sigma) as housekeeping control protein. […]
A general note: Immunoblotting shows a protein as a band on a membrane.
`C=CCNC1=C2C[C@@H](C)C[C@H](OC)[C@H](O)[C@@H](C)/C=C(\C)[C@H](OC(N)=O)[C@@H](OC)/C=C\C=C(/C)C(=O)NC(=CC1=O)C2=O` [Compound 17AAG, 17-allylamino-17-demethoxygeldanamycin]: the “degradation of Her2” value is “partial degradation”.
